Values joined by “and” are separate entries in the source; they are usually repeats but may differ in a detail not shown here. Equal values may be shown once. Read-outs that look alike come from different tables or passages of the source. Non-standard residues stand in square brackets, D forms with d. Residues, ends and D or L forms follow the SMILES beside them. *: point of attachment. X4 = CN1C(=C/C=C/C=C/C2=[N+](CCCCCC(=O)NCCCn3cc(COC[C@H]4CC[C@H](CN5C(=O)CC(*)C5=O)CC4)nn3)c3ccc(S(=O)(=O)[O-])cc3C2(C)C)C(C)(C)c2cc(S(=O)(=O)O)ccc21; X2 = N=c1ccc2c(-c3ccc(C(=O)NCCCn4cc(COC[C@H]5CC[C@H](CN6C(=O)CC(*)C6=O)CC5)nn4)cc3C(=O)O)c3ccc(N)c(S(=O)(=O)O)c3oc-2c1S(=O)(=O)O; X5 = COc1cc(/N=N/c2ccc(C)cc2[N+](=O)[O-])c(C)cc1/N=N/c1ccc(N(C)CCCC(=O)NCCn2cc(COC[C@H]3CC[C@H](CN4C(=O)CC(*)C4=O)CC3)nn2)cc1; X3 = O=C(NCCCn1cc(COC[C@H]2CC[C@H](CN3C(=O)CC(*)C3=O)CC2)nn1)c1ccc2c(c1)C(=O)OC21c2ccc(O)cc2Oc2cc(O)ccc21; X7 = C#CCOC[C@H]1CC[C@H](CN2C(=O)CC(*)C2=O)CC1; 1Nal = N[CH](Cc1cccc2ccccc12)C(=O)O; X1 = O=C1NC2CSC(CCCCC(=O)*)C2N1; PEG3 = NCCOCCOCCOCCC(=O)O; Dap = NC[CH](N)C(=O)O
Molecular target: T1, hGOAT (human ghrelin O-acyltransferase) (Homo sapiens, UniProt Q96T53)
T1 construct: made in house; host or cells: Sf9 insect cells (membrane/microsomal fraction)
T1 sequence (Q96T53 1-435): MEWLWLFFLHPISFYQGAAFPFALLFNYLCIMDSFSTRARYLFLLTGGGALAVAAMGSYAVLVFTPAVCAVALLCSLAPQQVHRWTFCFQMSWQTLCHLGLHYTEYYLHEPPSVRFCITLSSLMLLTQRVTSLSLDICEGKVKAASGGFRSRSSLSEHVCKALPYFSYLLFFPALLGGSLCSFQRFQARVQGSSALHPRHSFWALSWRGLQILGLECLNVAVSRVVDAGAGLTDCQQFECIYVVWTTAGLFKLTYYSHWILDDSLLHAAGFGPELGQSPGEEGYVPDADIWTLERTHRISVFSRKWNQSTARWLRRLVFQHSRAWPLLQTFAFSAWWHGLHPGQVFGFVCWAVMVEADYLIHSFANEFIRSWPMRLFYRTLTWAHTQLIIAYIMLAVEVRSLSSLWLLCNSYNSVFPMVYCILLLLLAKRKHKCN
Test: GOAT ghrelin acylation (octanoylation) inhibition assay, membrane fraction of Sf9 cells expressing hGOAT, HPLC readout
Assay type: biochemical
Conditions: for IC50: average of three independent trials; for IC50 relative to parent ligand 5: fold change relative to ligand 5; for change in binding potency with PEG3 linker B compared to linker A: primed ligand (linker B) relative to unprimed ligand (linker A)
Procedure: The microsomal fraction containing hGOAT for the ligand-binding studies by IC50 determination was prepared according to published protocols. For the GOAT inhibition assay, serial dilutions of 0, 0.15, 0.5, 1, 5, 15, and 50 µM concentrations were prepared in 50% acetonitrile for each ligand used. The membrane fractions from the Sf9 cells expressing GOAT were first thawed on ice then passed through an 18-gauge needle 10 times to homogenize them. The assays were performed with approximately 30 µg of the membrane protein as determined through a Bradford assay. The standard reaction conditions contained 50 mM HEPES pH 7.0, 1 µM MAFP, 30 µg of membrane protein, and ultrapure water. The ligands were added to the reaction mixtures and incubated for 30 min at room temperature protected from light prior to the reaction initiation. The reactions were initiated by octanoyl CoA (300 µM final concentration) and GSSFLCAcdan (0.3 µM final concentration) in a total reaction volume of 50 µL. […] The reactions were stopped with 50 µL of 20% acetic acid in isopropanol. The excess membrane fraction was precipitated with 16.7 µL of 40% trichloroacetic acid (TCA) followed by a 1000× g centrifugation for 2 min. The supernatant was then analyzed via reverse-phase HPLC in 100 µL samples as previously described. The inhibition trials were run in triplicate, with the reported IC50 values representing the average of at least three trials. The IC50 values for all LCs are reported in Supplemental Table S2.
The assays were analyzed on reverse-phase HPLC (Zorbax Eclipse XDB column, 4.6 × 150 mm) using a solvent gradient from […] in aqueous 0.05% TFA over 5 min at a flow rate of 1 mL/min, followed by a gradient of […] in 0.05% TFA over 1 min, 100% acetonitrile for 5 min, and a gradient of 100% acetonitrile to 30% acetonitrile in 0.05% TFA for 5 min. The total time for each run was 16 min. The peptides were detected by the attached acrylodan label with the UV absorbance at 360 nm and fluorescence (λex = 360 nm, λem = 485 nm). The octanoylated peptide typically eluted at around 7.5 min, with the unreacted peptide eluting at around 2.5 min. Chemstation for LC (Agilent Technologies) was used for peak integration.
The peak integrations were used to determine the percent conversion in the presence of either the inhibitor (ligand, LC) or the vehicle (50% acetonitrile). The percent activity was calculated using Equation (1):(1) % peptide octanoylationa=fluorescence of octanoylated peptide/total peptide fluorescence,
IC50 values were determined by fitting Equation (2) to the plot of % activity against inhibitor concentration:(2) % activity=% vehicle1−Inhibitor/Inhibitor+IC50
[formula] Scheme 1 The GOAT inhibition assay for determining ligand binding. The octanoylation of a fluorescently labeled ghrelin-mimetic peptide substrate is inhibited by LC binding, with GOAT octanoylation activity and inhibition determined as described in the Section 2.

[1] = ± one standard deviation, read-out: IC50 against hGOAT

Compound	IC50 [1]	further results
CC(C)CC(NC(=O)C(Cc1cccc2ccccc12)NC(=O)C(CN)NC(=O)C(CO)NC(=O)CN)C(=O)NC(CO)C(=O)N1CCCC1C(=O)NC(C(=O)NCCOCCOCCOCCC(=O)NC(CS)C(N)=O)C(C)O (stereo not drawn) [Ligand 3] (H-GS[Dap][1Nal]LSPT[PEG3]C-NH2; configuration not given here)	28.9 nM and 29 nM	–
C#CCOC[C@H]1CC[C@H](CN2C(=O)CC(SC[C@H](NC(=O)CCOCCOCCOCCNC(=O)[C@@H](NC(=O)[C@@H]3CCCN3C(=O)[C@H](CO)NC(=O)[C@H](CC(C)C)NC(=O)[C@H](Cc3cccc4ccccc34)NC(=O)[C@H](CN)NC(=O)[C@H](CO)NC(=O)CN)[C@@H](C)O)C(N)=O)C2=O)CC1 (stereo partly drawn) [Ligand 5, H-GS-Dap-Nal-1-LSPT-Mini-PEG3a-C-Linker] (H-GS[Dap][1Nal]LSPT[PEG3]C(X7)-NH2)	13 ± 1 nM	–
CC(C)C[C@H](NC(=O)[C@H](Cc1cccc2ccccc12)NC(=O)[C@H](CN)NC(=O)[C@H](CO)NC(=O)CN)C(=O)N[C@@H](CO)C(=O)N1CCC[C@H]1C(=O)N[C@H](C(=O)NCCOCCOCCOCCC(=O)N[C@@H](CCn1cc(COC[C@H]2CC[C@H](CN3C(=O)C=CC3=O)CC2)nn1)C(N)=O)[C@@H](C)O [Ligand 6, H-GS-Dap-Nal-1-LSPT-Mini-PEG3a-AHA-Linker]	1050 ± 79.5 nM	IC50 (apparent IC50, read-out: IC50 against hGOAT): > 1000 nM and 1000 nM
CC(C)C[C@H](NC(=O)[C@H](Cc1cccc2ccccc12)NC(=O)[C@H](CN)NC(=O)[C@H](CO)NC(=O)CN)C(=O)N[C@@H](CO)C(=O)N1CCC[C@H]1C(=O)N[C@H](C(=O)NCCOCCOCCOCCC(=O)N[C@@H](CSC1CC(=O)N(C[C@H]2CC[C@H](COCc3cn(CCCNC(=O)c4ccc(-c5c6ccc(=N)c(S(=O)(=O)O)c-6oc6c(S(=O)(=O)O)c(N)ccc56)c(C(=O)O)c4)nn3)CC2)C1=O)C(N)=O)[C@@H](C)O (stereo partly drawn) [Ligand 7, H-GS-Dap-Nal-1-LSPT-Mini-PEG3a-C-Linker-AF488azide] (H-GS[Dap][1Nal]LSPT[PEG3]C(X2)-NH2)	–	IC50 relative to parent ligand 5: six- to eight-fold higher
CC(C)C[C@H](NC(=O)[C@H](Cc1cccc2ccccc12)NC(=O)[C@H](CN)NC(=O)[C@H](CO)NC(=O)CN)C(=O)N[C@@H](CO)C(=O)N1CCC[C@H]1C(=O)N[C@H](C(=O)NCCOCCOCCOCCC(=O)N[C@@H](CSC1CC(=O)N(C[C@H]2CC[C@H](COCc3cn(CCCNC(=O)c4ccc5c(c4)C(=O)OC54c5ccc(O)cc5Oc5cc(O)ccc54)nn3)CC2)C1=O)C(N)=O)[C@@H](C)O (stereo partly drawn) [Ligand 8, H-GS-Dap-Nal-1-LSPT-Mini-PEG3-C-Linker-FAM5azide] (H-GS[Dap][1Nal]LSPT[PEG3]C(X3)-NH2)	73.8 ± 4.8 nM	IC50 relative to parent ligand 5: six- to eight-fold higher
CC(C)C[C@H](NC(=O)[C@H](Cc1cccc2ccccc12)NC(=O)[C@H](CN)NC(=O)[C@H](CO)NC(=O)CN)C(=O)N[C@@H](CO)C(=O)N1CCC[C@H]1C(=O)N[C@H](C(=O)NCCOCCOCCOCCC(=O)N[C@@H](CSC1CC(=O)N(C[C@H]2CC[C@H](COCc3cn(CCCNC(=O)CCCCC[N+]4=C(/C=C/C=C/C=C5N(C)c6ccc(S(=O)(=O)O)cc6C5(C)C)C(C)(C)c5cc(S(=O)(=O)[O-])ccc54)nn3)CC2)C1=O)C(N)=O)[C@@H](C)O (stereo partly drawn) [Ligand 9, H-GS-Dap-Nal-1-LSPT-Mini-PEG3a-C-Linker-SulfoCy5azide] (H-GS[Dap][1Nal]LSPT[PEG3]C(X4)-NH2)	84.4 ± 11.5 nM	IC50 relative to parent ligand 5: six- to eight-fold higher
COc1cc(/N=N/c2ccc(C)cc2[N+](=O)[O-])c(C)cc1/N=N/c1ccc(N(C)CCCC(=O)NCCn2cc(COC[C@H]3CC[C@H](CN4C(=O)CC(SC[C@H](NC(=O)CCOCCOCCOCCNC(=O)[C@@H](NC(=O)[C@@H]5CCCN5C(=O)[C@H](CO)NC(=O)[C@H](CC(C)C)NC(=O)[C@H](Cc5cccc6ccccc56)NC(=O)[C@H](CN)NC(=O)[C@H](CO)NC(=O)CN)[C@@H](C)O)C(N)=O)C4=O)CC3)nn2)cc1 (stereo partly drawn) [Ligand 12, H-GS-Dap-Nal-1-LSPT-Mini-PEG3-C-Linker-AzoDye1azide] (H-GS[Dap][1Nal]LSPT[PEG3]C(X5)-NH2)	5.9 ± 1.7 nM	–
CC(C)CC(NC(=O)C(Cc1cccc2ccccc12)NC(=O)C(CN)NC(=O)C(CO)NC(=O)CN)C(=O)NC(CO)C(=O)N1CCCC1C(=O)NC(C(=O)NCCOCCOCCOCCC(=O)NC(CCCCNC(=O)CCCCC1SCC2NC(=O)NC21)C(N)=O)C(C)O (stereo not drawn) [Ligand 13] (H-GS[Dap][1Nal]LSPT[PEG3]K(X1)-NH2; configuration not given here)	51.8 ± 5.7 nM	–
COc1cc2cc(c1Cl)N(C)C(=O)C[C@H](OC(=O)[C@H](C)N(C)C(=O)CCSC1CC(=O)N(C[C@H]3CC[C@H](COCc4cn(CC[C@H](NC(=O)CCOCCOCCOCCNC(=O)[C@@H](NC(=O)[C@@H]5CCCN5C(=O)[C@H](CO)NC(=O)[C@H](CC(C)C)NC(=O)[C@H](Cc5cccc6ccccc56)NC(=O)[C@H](CN)NC(=O)[C@H](CO)NC(=O)CN)[C@@H](C)O)C(N)=O)nn4)CC3)C1=O)[C@]1(C)O[C@H]1[C@H](C)[C@@H]1C[C@@](O)(NC(=O)O1)[C@H](OC)/C=C/C=C(\C)C2 (stereo partly drawn) [Ligand 14, H-GS-Dap-Nal-1-LSPT-Mini-PEG3a-AHA-Linker-Mertansine]	–	IC50 (IC50 against hGOAT, ± one standard deviation): 18.8 nM and ~20 nM
CC(C)C[C@H](NC(=O)[C@H](Cc1cccc2ccccc12)NC(=O)[C@H](CN)NC(=O)[C@H](CO)NC(=O)CN)C(=O)N[C@@H](CO)C(=O)N1CCC[C@H]1C(=O)N[C@H](C(=O)NCCOCCOCCOCCC(=O)N[C@@H](CSC1CC(=O)N(CCNC(=O)CCCCC[N+]2=C(/C=C/C=C/C=C3N(C)c4ccc(S(=O)(=O)O)cc4C3(C)C)C(C)(C)c3cc(S(=O)(=O)[O-])ccc32)C1=O)C(N)=O)[C@@H](C)O (stereo partly drawn) [Ligand 16]	56.8 ± 8.6 nM	–
COc1cc(/N=N/c2ccc(C)cc2[N+](=O)[O-])c(C)cc1/N=N/c1ccc(N(C)CCCC(=O)NCc2cn(CC[C@H](NC(=O)CCOCCOCCOCCNC(=O)[C@@H](NC(=O)[C@@H]3CCCN3C(=O)[C@H](CO)NC(=O)[C@H](CC(C)C)NC(=O)[C@H](Cc3cccc4ccccc34)NC(=O)[C@H](CN)NC(=O)[C@H](CO)NC(=O)CN)[C@@H](C)O)C(N)=O)nn2)cc1 [Ligand 17, H-GS-Dap-Nal-1-LSPT-Mini-PEG3a-AHA-AzoDye1alkyne]	3.9 ± 0.4 nM	–
H-GS-Dap-Nal-1-LSPT-Mini-PEG3a-C-Linker-TideQuencher2azide [Ligand 11]	25.7 ± 6.2 nM	IC50 relative to parent ligand 5: approximately two-fold higher
H-GS-Dap-Nal-1-LSPT-Mini-PEG3b-C-NH2 [Ligand 3’]	–	change in binding potency with PEG3 linker B compared to linker A: approximately four-fold drop
H-GS-Dap-Nal-1-LSPT-Mini-PEG3b-C-SulfoCy5maleimide [Ligand 16’]	–	change in binding potency with PEG3 linker B compared to linker A: approximately two-fold increase
